ChEMBL document CHEMBL1221276, “Structure-based design, synthesis, and biological evaluation of lipophilic-tailed monocationic inhibitors of neuronal nitric oxide synthase” (Bioorg Med Chem, 2010)

Columns and labels:
[1] = target: Nitric oxide synthase 1 (Rattus norvegicus, UniProt P29476); experiment: Inhibition of rat recombinant nNOS expressed in Escherichia coli by hemoglobin capture assay
[2] = target: T1, Nitric oxide synthase, inducible (Mus musculus, UniProt P29477); experiment: Inhibition of mouse recombinant iNOS expressed in Escherichia coli by hemoglobin capture assay
T1 sequence (P29477 whole entry): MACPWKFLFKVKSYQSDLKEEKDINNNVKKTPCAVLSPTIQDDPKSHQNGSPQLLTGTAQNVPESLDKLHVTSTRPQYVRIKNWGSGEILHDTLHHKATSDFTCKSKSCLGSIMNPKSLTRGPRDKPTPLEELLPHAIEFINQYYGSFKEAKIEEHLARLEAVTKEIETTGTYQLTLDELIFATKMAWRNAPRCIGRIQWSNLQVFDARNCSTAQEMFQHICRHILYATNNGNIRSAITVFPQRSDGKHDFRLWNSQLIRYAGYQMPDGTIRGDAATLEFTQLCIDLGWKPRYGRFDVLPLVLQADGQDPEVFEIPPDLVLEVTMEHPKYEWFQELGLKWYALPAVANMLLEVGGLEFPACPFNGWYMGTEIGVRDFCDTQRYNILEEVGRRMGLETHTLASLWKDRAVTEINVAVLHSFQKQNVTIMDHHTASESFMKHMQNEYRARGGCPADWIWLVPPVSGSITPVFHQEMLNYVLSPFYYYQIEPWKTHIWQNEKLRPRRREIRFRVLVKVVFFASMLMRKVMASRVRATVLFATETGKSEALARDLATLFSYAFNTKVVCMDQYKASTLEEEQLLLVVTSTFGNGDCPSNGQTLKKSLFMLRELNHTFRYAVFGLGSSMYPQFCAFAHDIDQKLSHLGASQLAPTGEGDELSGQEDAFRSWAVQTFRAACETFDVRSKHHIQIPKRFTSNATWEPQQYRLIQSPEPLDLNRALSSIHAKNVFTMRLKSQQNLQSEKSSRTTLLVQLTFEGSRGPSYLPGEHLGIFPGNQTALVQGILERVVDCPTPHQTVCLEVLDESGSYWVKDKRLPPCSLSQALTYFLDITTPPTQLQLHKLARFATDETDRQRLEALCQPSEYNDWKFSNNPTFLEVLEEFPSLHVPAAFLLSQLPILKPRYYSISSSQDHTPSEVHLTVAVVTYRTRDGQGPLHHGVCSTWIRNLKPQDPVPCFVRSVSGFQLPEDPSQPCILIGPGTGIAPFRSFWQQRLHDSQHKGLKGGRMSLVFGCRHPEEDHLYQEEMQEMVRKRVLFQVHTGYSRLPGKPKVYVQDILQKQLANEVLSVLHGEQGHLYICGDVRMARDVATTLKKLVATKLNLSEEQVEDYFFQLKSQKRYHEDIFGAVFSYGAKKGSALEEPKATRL

[3] = target: T2, Nitric oxide synthase 3 (Bos taurus, UniProt P29473); experiment: Inhibition of bovine recombinant eNOS expressed in Escherichia coli by hemoglobin capture assay
T2 sequence (P29473 whole entry): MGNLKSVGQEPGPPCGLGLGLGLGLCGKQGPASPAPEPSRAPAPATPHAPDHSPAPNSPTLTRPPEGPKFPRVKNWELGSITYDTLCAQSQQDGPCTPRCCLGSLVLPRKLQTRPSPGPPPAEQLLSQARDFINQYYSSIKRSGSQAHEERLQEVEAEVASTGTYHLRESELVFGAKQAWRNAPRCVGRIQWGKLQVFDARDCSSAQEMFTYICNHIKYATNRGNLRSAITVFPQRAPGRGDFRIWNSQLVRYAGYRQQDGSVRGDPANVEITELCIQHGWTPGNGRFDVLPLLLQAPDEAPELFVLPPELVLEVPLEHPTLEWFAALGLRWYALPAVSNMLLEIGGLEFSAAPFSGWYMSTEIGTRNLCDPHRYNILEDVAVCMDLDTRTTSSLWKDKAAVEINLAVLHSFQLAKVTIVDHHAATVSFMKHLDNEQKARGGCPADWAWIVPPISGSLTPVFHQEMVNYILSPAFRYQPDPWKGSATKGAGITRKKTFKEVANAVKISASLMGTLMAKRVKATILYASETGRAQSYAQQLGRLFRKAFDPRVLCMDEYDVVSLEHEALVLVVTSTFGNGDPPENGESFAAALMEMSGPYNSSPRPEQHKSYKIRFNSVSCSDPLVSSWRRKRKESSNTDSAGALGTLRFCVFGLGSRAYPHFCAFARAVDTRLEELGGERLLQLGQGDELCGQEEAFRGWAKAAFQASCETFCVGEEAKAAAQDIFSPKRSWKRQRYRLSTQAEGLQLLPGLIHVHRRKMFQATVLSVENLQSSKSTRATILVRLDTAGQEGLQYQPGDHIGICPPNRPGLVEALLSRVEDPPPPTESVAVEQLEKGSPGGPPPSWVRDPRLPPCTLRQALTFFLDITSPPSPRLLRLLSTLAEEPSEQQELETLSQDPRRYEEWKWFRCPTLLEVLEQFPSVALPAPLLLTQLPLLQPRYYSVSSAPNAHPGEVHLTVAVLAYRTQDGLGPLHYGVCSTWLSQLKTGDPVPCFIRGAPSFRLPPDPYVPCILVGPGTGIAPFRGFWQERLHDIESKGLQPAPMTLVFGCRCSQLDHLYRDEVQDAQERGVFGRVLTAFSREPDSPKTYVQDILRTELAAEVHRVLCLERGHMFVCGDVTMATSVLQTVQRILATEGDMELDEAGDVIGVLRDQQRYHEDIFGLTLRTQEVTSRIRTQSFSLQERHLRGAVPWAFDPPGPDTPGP

Nitric oxide synthase 1, sequence (P29476 whole entry): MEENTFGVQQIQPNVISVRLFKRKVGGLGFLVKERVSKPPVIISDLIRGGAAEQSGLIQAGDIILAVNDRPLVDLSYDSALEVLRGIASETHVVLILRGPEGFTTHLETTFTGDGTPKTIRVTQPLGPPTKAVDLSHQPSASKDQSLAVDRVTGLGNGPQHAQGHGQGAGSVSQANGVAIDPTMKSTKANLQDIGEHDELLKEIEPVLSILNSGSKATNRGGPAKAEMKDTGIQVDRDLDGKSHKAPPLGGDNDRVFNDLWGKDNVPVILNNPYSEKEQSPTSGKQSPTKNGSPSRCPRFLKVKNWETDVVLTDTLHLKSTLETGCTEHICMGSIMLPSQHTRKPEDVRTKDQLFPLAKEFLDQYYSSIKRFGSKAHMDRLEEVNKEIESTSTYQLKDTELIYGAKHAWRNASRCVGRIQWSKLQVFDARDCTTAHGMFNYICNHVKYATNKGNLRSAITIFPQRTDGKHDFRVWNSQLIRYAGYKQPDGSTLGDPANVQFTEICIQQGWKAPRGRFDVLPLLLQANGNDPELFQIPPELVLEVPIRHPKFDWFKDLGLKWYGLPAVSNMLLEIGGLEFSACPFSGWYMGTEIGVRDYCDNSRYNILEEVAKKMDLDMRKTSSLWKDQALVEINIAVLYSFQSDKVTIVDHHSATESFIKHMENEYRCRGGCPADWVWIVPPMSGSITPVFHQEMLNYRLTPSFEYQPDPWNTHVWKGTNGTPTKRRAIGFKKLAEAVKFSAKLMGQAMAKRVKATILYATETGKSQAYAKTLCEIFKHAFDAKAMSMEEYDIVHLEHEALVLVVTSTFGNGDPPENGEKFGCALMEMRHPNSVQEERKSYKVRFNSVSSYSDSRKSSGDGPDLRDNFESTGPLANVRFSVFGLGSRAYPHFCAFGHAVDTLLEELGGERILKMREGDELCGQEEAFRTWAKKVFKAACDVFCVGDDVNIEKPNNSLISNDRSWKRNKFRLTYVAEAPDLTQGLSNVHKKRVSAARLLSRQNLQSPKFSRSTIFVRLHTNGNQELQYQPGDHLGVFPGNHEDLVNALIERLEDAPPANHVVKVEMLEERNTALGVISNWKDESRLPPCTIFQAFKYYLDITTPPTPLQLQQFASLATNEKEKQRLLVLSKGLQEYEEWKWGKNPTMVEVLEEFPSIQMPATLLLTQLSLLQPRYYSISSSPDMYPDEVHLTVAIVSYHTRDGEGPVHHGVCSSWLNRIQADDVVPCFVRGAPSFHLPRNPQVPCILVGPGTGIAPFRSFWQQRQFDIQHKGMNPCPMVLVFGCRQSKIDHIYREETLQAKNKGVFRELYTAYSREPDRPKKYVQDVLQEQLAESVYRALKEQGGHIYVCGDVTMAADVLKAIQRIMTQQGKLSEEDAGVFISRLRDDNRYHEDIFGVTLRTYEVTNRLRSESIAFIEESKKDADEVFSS

Row | Ki [1] | Ki [2] | Ki [3] | Structure (SMILES)
1 | 3 µM | – | – | Nc1cccc(C[C@@H]2CNC[C@@H]2Oc2cccc(Oc3ccccc3)c2)n1 (racemic)
2 | 1.2 µM | 55.6 µM | 26 µM | Cc1cc(N)nc(C[C@@H]2CNC[C@@H]2OCc2ccc(-c3cccc(Cl)c3)cc2)c1 (racemic)
3 | 0.75 µM | 39.5 µM | 13.3 µM | Cc1cc(N)nc(C[C@@H]2CNC[C@@H]2OCc2ccc(-c3cccc(F)c3)cc2)c1 (racemic)
4 | – | 37.3 µM | 13.6 µM | Cc1cc(N)nc(C[C@@H]2CNC[C@@H]2OCc2ccc(-c3cccc(C(F)(F)F)c3)cc2)c1 (racemic)
5 | 0.76 µM | – | – | Cc1cc(N)nc(C[C@@H]2CNC[C@@H]2OCc2ccc(-c3ccc(F)c(Cl)c3)cc2)c1 (racemic)

Row | Structure (SMILES) | Ki [1] | Ki [2] | Ki [3]
6 | Cc1cc(N)nc(C[C@@H]2CNC[C@@H]2OCc2ccc(-c3ccc(F)c(C)c3)cc2)c1 (racemic) | 0.62 µM | 22.1 µM | –
